Test results from patent publication US6521665B1, “Method of treating insulin resistance” (priority 2001, dated 2003).
Like-named read-outs stand apart in the source and are kept apart here.

Experiments:
[1] = tested on: streptozotocin-induced rats; conditions: for Mean plasma FFA / Mean plasma insulin / Mean serum glucose: experimental rats, 5 mg per kg s.c. daily for 7 days
Method: Animals. Male albino Wistar rats 8-10 weeks of age 200-250 grams of body weight were used. The rats were housed at the temperature of 18±21° C. on a 12 hour light-dark cycle. Rats were fed on a stock laboratory diet (59% carbohydrates; 17% protein; 3% fat; 21% minerals, water, cellulose) and allowed water ad libitum. The streptozotocin (Sigma, St. Louis, Mo., USA) solved in citrate buffer (0.05M, pH 5.5) was injected into tail vein of male albino Wistar rats in a dose of 35 mg per kg of animal body weight to induce decompensated insulin resistance. The rats with levels of glucose more than 14.0 mmol/l were used in the experiment one week after the streptozotocin injection.
(§1) Assays. Plasma free fatty acids levels were determined by enzymatic method with a commercially available kit (Waho Chemicals Gmbh, Neuss, Germany) with Multistat 3 centrifugal analyzer (Instrumentation Laboratories, Lexington, USA).
(§2) Serum glucose concentrations were determined by the glucose oxidase method with a kit (Lachema, Slov.) with glucose analyzer (Beckman, Fullerton, Calif., USA).
(§3) Plasma insulin concentrations were determined by a double-antibody radioimmunoassay kit (Kabi Pharmacia Diagnostics, Uppsala, Sweden) using a rat insulin standard (Novo Research Institute, Bagsvard, Denmark).
Procedure. Streptozotocin-induced rats were assigned to two groups: a control rats (six rats) and experimental rats (fifteen rats). Experimental rats received daily injection (subcutaneously, 0.5 ml at 09.00 h) of water solution of succinic acid disodium salt hexahydrate in a dose of 5 mg per kg of body weight for period of 7 days.
Plasma free fatty acid levels (FFA), plasma Insulin levels and serum glucose levels were measured in rats by tail clipping method at zero day (before treatment), at third, fifth and seventh days (treatment period), and at tenth, fifteen, twentieth, twenty fifth and thirtieth days (after-treatment period).

[2] = tested on: healthy rats; conditions: no changes during thirty days of the experiment
Method: as §1, §2, §3

[3] = tested on: non-insulin dependent diabetic humans; conditions: for Mean plasma FFA / Mean plasma High Density Lipoprotein cholesterol (HDL) / Mean plasma Low Density Lipoprotein cholesterol (LDL) / Mean plasma Triglycerides / Mean plasma insulin / Mean serum glucose: NIDDM humans, orally 200 mg to 400 mg per day for 3 to 7 days
Description: Patients. Twelve non-insulin dependent diabetic humans were studied. Non-insulin Dependent Diabetes Mellitus (NIDDM) was diagnosed in the humans according to the World Health Organisation criteria and had been presented for minimum 5 years. The NIDDM humans were metabolically stable and had glucose levels more than 12.8 mmol/l. Six patients were taking oral sulphonylurea hypoglicemic drug glibenclamide (rec. INN). None of the humans were undergoing hypolipidemic therapy. The humans had no additive metabolic disorders.
Assays. Assays were used as described in the example 1 of the invention. Plasma insulin concentrations were determined by a double-antibody radioimmunoassay kit (Kabi Pharmacia Diagnostics, Uppsala, Sweden).
Procedure. Pharmaceutical grade succinic acid in a unit dosage form of 100 mg per gelatin capsule was used. All patients received succinic acid orally in daily dose of 200 mg to 400 mg per day for period of 3 to 7 days.
Plasma free fatty acid levels, insulin levels and serum glucose levels, plasma high density lipoprotein cholesterol (HDL-cholesterol), low density lipoprotein cholesterol (LDL-cholesterol) and triglycerides were measured in humans at zero day (before treatment ), at third and fifth days (treatment period), and at tenth, fifteen twentieth, twenty fifth thirtieth and fortieth days (after-treatment period).

[4] = tested on: pancreatic islets; conditions: MacDonald, Fahien, Diabetes 37(7): 997-999 (1988); cited from earlier work
[5] = day 10 (after-treatment period)
[6] = day 15 (after-treatment period)
[7] = day 20 (after-treatment period)
[8] = day 25 (after-treatment period)
[9] = day 30 (after-treatment period)
[10] = day 10 (after treatment period)
[11] = day 15 (after treatment period)
[12] = day 20 (after treatment period)
[13] = day 25 (after treatment period)
[14] = day 30 (after treatment period)
[15] = day 40 (after treatment period)
[16] = day 40 (after-treatment period)

O.O.O.O.O.O.O=C([O-])CCC(=O)[O-].[Na+].[Na+] [succinic acid disodium salt hexahydrate]
Mean plasma FFA ([1]; day 0 (before treatment)): 0.35 ± 0.03 mmol/L | Mean plasma insulin ([1]; day 0 (before treatment)): 11.0 ± 0.7 ng/mL | Mean serum glucose ([1]; day 0 (before treatment)): 15.7 ± 2.6 mmol/L | Mean plasma FFA ([1]; day 3 (treatment period)): 0.32 ± 0.04 mmol/L | Mean plasma insulin ([1]; day 3 (treatment period)): 10.2 ± 1.1 ng/mL | Mean serum glucose ([1]; day 3 (treatment period)): 15.8 ± 3.1 mmol/L | Mean plasma FFA ([1]; day 5 (treatment period)): 0.25 ± 0.06 mmol/L | Mean plasma insulin ([1]; day 5 (treatment period)): 7.4 ± 0.8 ng/mL | Mean serum glucose ([1]; day 5 (treatment period)): 13.0 ± 2.4 mmol/L | Mean plasma FFA ([1]; day 7 (treatment period)): 0.18 ± 0.05 mmol/L | Mean plasma insulin ([1]; day 7 (treatment period)): 4.2 ± 0.7 ng/mL | Mean serum glucose ([1]; day 7 (treatment period)): 10.0 ± 1.2 mmol/L | Mean plasma FFA [1, 5]: 0.20 ± 0.06 mmol/L | Mean plasma insulin [1, 5]: 3.1 ± 0.8 ng/mL | Mean serum glucose [1, 5]: 10.1 ± 2.0 mmol/L | Mean plasma FFA [1, 6]: 0.15 ± 0.03 mmol/L | Mean plasma insulin [1, 6]: 2.4 ± 0.4 ng/mL | Mean serum glucose [1, 6]: 8.1 ± 1.1 mmol/L | Mean plasma FFA [1, 7]: 0.10 ± 0.05 mmol/L | Mean plasma insulin [1, 7]: 2.1 ± 0.4 ng/mL | Mean serum glucose [1, 7]: 6.6 ± 0.8 mmol/L | Mean plasma FFA [1, 8]: 0.11 ± 0.04 mmol/L | Mean plasma insulin [1, 8]: 2.0 ± 0.3 ng/mL | Mean serum glucose [1, 8]: 5.7 ± 0.5 mmol/L | Mean plasma FFA [1, 9]: 0.13 ± 0.04 mmol/L | Mean plasma insulin [1, 9]: 2.1 ± 0.3 ng/mL | Mean serum glucose [1, 9]: 5.4 ± 0.7 mmol/L | insulin sensitivity ([1]; insulin resistant rats in comparison with control insulin resistant rats, maximal efficacy in the after-treatment period): significant improving in insulin sensitivity | plasma free fatty acid levels [2]: 0.08 ± 0.03 mmol/L | plasma insulin levels [2]: 3.4 ± 0.6 ng/mL | serum glucose [2]: 4.8 ± 0.4 mmol/L

O=C(O)CCC(=O)O [succinic acid]
Mean plasma FFA ([3]; day 0 (before treatment)): 0.240 ± 0.044 mmol/L | Mean plasma High Density Lipoprotein cholesterol (HDL) ([3]; day 0 (before treatment)): 0.6 ± 0.4 mmol/L | Mean plasma Low Density Lipoprotein cholesterol (LDL) ([3]; day 0 (before treatment)): 4.8 ± 0.3 mmol/L | Mean plasma Triglycerides ([3]; day 0 (before treatment)): 2.7 ± 0.3 mmol/L | Mean plasma insulin ([3]; day 0 (before treatment)): 140 ± 23 pmol/L | Mean serum glucose ([3]; day 0 (before treatment)): 14.8 ± 1.4 mmol/L | Mean plasma FFA ([3]; day 3 (treatment period)): 0.250 ± 0.071 mmol/L | Mean plasma High Density Lipoprotein cholesterol (HDL) ([3]; day 3 (treatment period)): 0.7 ± 0.2 mmol/L | Mean plasma Low Density Lipoprotein cholesterol (LDL) ([3]; day 3 (treatment period)): 4.9 ± 0.4 mmol/L | Mean plasma Triglycerides ([3]; day 3 (treatment period)): 2.8 ± 0.6 mmol/L | Mean serum glucose ([3]; day 3 (treatment period)): 14.5 ± 1.4 mmol/L | Mean plasma FFA ([3]; day 5 (treatment period)): 0.195 ± 0.064 mmol/L | Mean plasma High Density Lipoprotein cholesterol (HDL) ([3]; day 5 (treatment period)): 0.8 ± 0.2 mmol/L | Mean plasma Low Density Lipoprotein cholesterol (LDL) ([3]; day 5 (treatment period)): 4.7 ± 0.2 mmol/L | Mean plasma Triglycerides ([3]; day 5 (treatment period)): 2.7 ± 0.3 mmol/L | Mean serum glucose ([3]; day 5 (treatment period)): 14.9 ± 1.5 mmol/L | Mean plasma High Density Lipoprotein cholesterol (HDL) [3, 10]: 1.2 ± 0.4 mmol/L | Mean plasma Low Density Lipoprotein cholesterol (LDL) [3, 10]: 4.3 ± 0.6 mmol/L | Mean plasma Triglycerides [3, 10]: 2.5 ± 0.3 mmol/L | Mean plasma FFA [3, 5]: 0.184 ± 0.035 mmol/L | Mean plasma insulin [3, 5]: 134 ± 27 pmol/L | Mean serum glucose [3, 5]: 13.0 ± 2.0 mmol/L | Mean plasma High Density Lipoprotein cholesterol (HDL) [3, 11]: 1.2 ± 0.3 mmol/L | Mean plasma Low Density Lipoprotein cholesterol (LDL) [3, 11]: 4.0 ± 0.3 mmol/L | Mean plasma Triglycerides [3, 11]: 2.4 ± 0.4 mmol/L | Mean plasma FFA [3, 6]: 0.157 ± 0.032 mmol/L | Mean serum glucose [3, 6]: 13.1 ± 0.8 mmol/L | Mean plasma High Density Lipoprotein cholesterol (HDL) [3, 12]: 1.2 ± 0.4 mmol/L | Mean plasma Low Density Lipoprotein cholesterol (LDL) [3, 12]: 3.5 ± 0.4 mmol/L | Mean plasma Triglycerides [3, 12]: 1.8 ± 0.4 mmol/L | Mean plasma FFA [3, 7]: 0.161 ± 0.034 mmol/L | Mean plasma insulin [3, 7]: 124 ± 17 pmol/L | Mean serum glucose [3, 7]: 11.0 ± 1.0 mmol/L | Mean plasma High Density Lipoprotein cholesterol (HDL) [3, 13]: 1.3 ± 0.2 mmol/L | Mean plasma Low Density Lipoprotein cholesterol (LDL) [3, 13]: 3.4 ± 0.3 mmol/L | Mean plasma Triglycerides [3, 13]: 1.3 ± 0.2 mmol/L | Mean plasma FFA [3, 8]: 0.113 ± 0.046 mmol/L | Mean serum glucose [3, 8]: 9.4 ± 1.3 mmol/L | Mean plasma High Density Lipoprotein cholesterol (HDL) [3, 14]: 1.5 ± 0.2 mmol/L | Mean plasma Low Density Lipoprotein cholesterol (LDL) [3, 14]: 3.4 ± 0.2 mmol/L | Mean plasma Triglycerides [3, 14]: 1.1 ± 0.1 mmol/L | Mean plasma FFA [3, 9]: 0.086 ± 0.035 mmol/L | Mean plasma insulin [3, 9]: 118 ± 21 pmol/L | Mean serum glucose [3, 9]: 7.1 ± 0.6 mmol/L | Mean plasma High Density Lipoprotein cholesterol (HDL) [3, 15]: 1.3 ± 0.2 mmol/L | Mean plasma Low Density Lipoprotein cholesterol (LDL) [3, 15]: 3.5 ± 0.4 mmol/L | Mean plasma Triglycerides [3, 15]: 1.4 ± 0.2 mmol/L | Mean plasma FFA [3, 16]: 0.100 ± 0.022 mmol/L | Mean plasma insulin [3, 16]: 112 ± 14 pmol/L | Mean serum glucose [3, 16]: 5.8 ± 1.1 mmol/L | change of plasma triglycerides, LDL cholesterol and HDL cholesterol ([3]; non-insulin dependent diabetic humans, especially in the after-treatment period): reducing plasma triglycerides and low density lipoprotein cholesterol, and increasing plasma high density lipoprotein cholesterol | insulin sensitivity ([3]; non-insulin dependent diabetic humans, maximal efficacy in the after-treatment period): improving in insulin sensitivity | insulin release [4]: did not stimulate insulin release
